Molecules are shown by their SMILES. Structures can show the parent of a compound that is named as a salt. Where two headings read alike, the source gives them in different places.

Data set [1] concerns the target T1, human Y5 receptor (Homo sapiens, UniProt Q15761).
T1 construct: expressed in transfected cells; host or cells: mouse fibroblast LM(tk-) cells, e.g. L-hY5-7 (ATCC CRL-11995)
T1 sequence (Q15761 1-445): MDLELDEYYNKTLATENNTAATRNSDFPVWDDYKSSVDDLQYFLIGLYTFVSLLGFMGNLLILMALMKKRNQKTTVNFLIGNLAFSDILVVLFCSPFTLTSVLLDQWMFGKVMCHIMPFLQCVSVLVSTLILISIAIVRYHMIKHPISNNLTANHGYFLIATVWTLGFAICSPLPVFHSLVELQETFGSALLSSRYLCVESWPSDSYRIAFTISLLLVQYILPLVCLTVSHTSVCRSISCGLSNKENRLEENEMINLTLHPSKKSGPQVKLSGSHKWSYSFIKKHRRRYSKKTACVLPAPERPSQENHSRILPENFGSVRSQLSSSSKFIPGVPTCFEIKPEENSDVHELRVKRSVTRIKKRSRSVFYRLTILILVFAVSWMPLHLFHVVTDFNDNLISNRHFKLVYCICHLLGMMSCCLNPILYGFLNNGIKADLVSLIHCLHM
Put plainly: Functional assay: radioimmunoassay of cAMP in stably transfected cells. It is filed as cell-based. The conditions noted are these: Functional Antagonism Data, Table 7. How it is done:
LM(tk-) cells stably transfected with the human Y5 receptor were routinely converted from an adherent monolayer to a viable suspension. Adherent cells were harvested with trypsin at the point of confluence, resuspended in a minimal volume of complete DMEM for a cell count, and further diluted to a concentration of 10^6 cells/ml in suspension media (10% bovine calf serum, 10% 10× Medium 199 (Gibco), 9 mM NaHCO3, 25 mM glucose, 2 mM L-glutamine, 100 units/ml penicillin/100 μg/ml streptomycin, and 0.05% methyl cellulose). The cell suspension was maintained in a shaking incubator at 37° C., 5% CO2 for 24 hours. Membranes harvested from cells grown in this manner may be stored as large, uniform batches in liquid nitrogen. Alternatively, cells may be returned to adherent cell culture in complete DMEM by distribution into 96-well microtiter plates coated with poly-D-lysine (0.01 mg/ml) followed by incubation at 37° C., 5% CO2 for 24 hours.
Stably transfected cells were seeded into 96-well microtiter plates and cultured until confluent. […] Cells were washed in […] buffered saline, or HBS (150 mM NaCl, 20 mM HEPES, 1 mM CaCl2, 5 mM KCl, 1 mM MgCl2, and 10 mM glucose) supplemented with 0.1% bovine serum albumin plus 5 mM theophylline and pre-equilibrated in the same solution for 20 min at 37° C. in 5% CO2. Cells were then incubated 5 min with 10 μM forskolin and various concentrations of receptor-selective ligands. The assay was terminated by the removal of HBS and acidification of the cells with 100 mM HCl. Intracellular cAMP was extracted and quantified with a modified version of a magnetic bead-based radioimmunoassay (Advanced Magnetics, Cambridge, Mass.). The final antigen/antibody complex was separated from free ^125I-cAMP by vacuum filtration through a PVDF filter in a microtiter plate (Millipore, Bedford, Mass.). Filters were punched and counted for ^125I, in a Packard gamma counter.

In data set [2] the target is T1, human Y5 receptor. Put plainly: Radioligand binding to membranes, cloned human Y5 receptor.
Data set [3] addresses T2, human Y2 receptor (Homo sapiens, UniProt P49146).
T2 sequence (P49146 1-381): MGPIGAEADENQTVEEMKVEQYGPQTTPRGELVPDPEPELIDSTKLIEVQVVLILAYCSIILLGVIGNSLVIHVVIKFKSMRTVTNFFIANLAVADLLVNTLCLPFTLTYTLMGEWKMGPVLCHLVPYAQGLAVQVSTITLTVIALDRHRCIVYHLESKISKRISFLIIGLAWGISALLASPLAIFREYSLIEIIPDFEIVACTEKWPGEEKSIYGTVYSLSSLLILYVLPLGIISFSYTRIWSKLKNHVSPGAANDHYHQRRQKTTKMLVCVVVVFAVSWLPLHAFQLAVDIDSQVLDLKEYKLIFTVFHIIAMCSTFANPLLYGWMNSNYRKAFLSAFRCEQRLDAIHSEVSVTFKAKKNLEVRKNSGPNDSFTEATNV
Put plainly: Radioligand binding to membranes, cloned human Y2 receptor.
Protocol: (§1) Binding of the compounds of the present invention to human Y1, Y2, Y4, and Y5 receptors was evaluated using stably transfected 293 or LM(tk-) cells as described above.
(§2) Membranes were harvested from COS-7 cells 48 hours after transient transfection. Adherent cells were washed twice in ice-cold phosphate buffered saline (138 mM NaCl, 8.1 mM Na2HPO4, 2.5 mM KCl, 1.2 mM KH2PO4, 0.9 mM CaCl2, 0.5 mM MgCl2, pH 7.4) and lysed by sonication in ice-cold sonication buffer (20 mM Tris-HCl, 5 mM EDTA, pH 7.7). Large particles and debris were cleared by low speed centrifugation (200×g, 5 min, 4° C.). Membranes were collected from the supernatant fraction by centrifugation (32,000×g, 18 min, 4° C.), washed with ice-cold hypotonic buffer, and collected again by centrifugation (32,000×g, 18 min, 4° C.). The final membrane pellet was resuspended by sonication into a small volume of ice-cold binding buffer (˜1 ml for every 5 plates: 10 mM NaCl, 20 mM HEPES, 0.22 mM KH2PO4, 1.26 mM CaCl2, 0.81 mM MgSO4, pH 7.4). Protein concentration was measured by the Bradford method (Bradford, 1976) using Bio-Rad Reagent, with bovine serum albumin as a standard. Membranes were held on ice for up to one hour and used fresh, or flash-frozen and stored in liquid nitrogen.
(§3) Membranes were prepared similarly from 293, LM(tk-), and NIH-3T3 cells.
(§4) Membrane suspensions were diluted in binding buffer supplemented with 0.1% bovine serum albumin to yield an optimal membrane protein concentration so that ^125I-PYY (or alternative radioligand such as ^125I-NPY, ^125I-NYY3-36, or ^125I-[Leu^31Pro^34]PYY) bound by membranes in the assay was less than 10% of ^125I-PYY (or alternative radioligand) delivered to the sample (100,000 dpm/sample=0.08 nM for competition binding assays). ^125I-PYY (or alternative radioligand) and peptide competitors were also diluted to desired concentrations in supplemented binding buffer. Individual samples were then prepared in 96-well polypropylene microtiter plates by mixing ^125I-PYY (25 μL) (or alternative radioligand), competing peptides or supplemented binding buffer (25 μL), and finally, membrane suspensions (200 μL). Samples were incubated in a 30° C. water bath with constant shaking for 120 min. Incubations were terminated by filtration over Whatman GF/C filters (pre-coated with 1% polyethyleneimine and air-dried before use), followed by washing with 5 mL of ice-cold binding buffer. Filter-trapped membranes were impregnated with MeltiLex solid scintillant (Wallac, Turku, Finland) and counted for ^125I in a Wallac Beta-Plate Reader. Alternatively, incubations were carried out in GF/C filter plates (pre-coated with 1% polyethyleneimine and air-dried before use), followed by vacuum filtration and three washes of 300 μL of ice-cold binding buffer. 50 μL of UltimaGold (Packard) scintillant were added and counted for ^125I, in a Wallac MicroBeta Trilux. Non-specific binding was defined by 300 nM human NPY for all receptors except the Y4 subtypes; 100 nM human PP was used for the human Y4 and 100 nM rat PP for the rat Y4.

For data set [4], the target named is T3, human Y1 receptor (Homo sapiens, UniProt P25929).
T3 construct: expressed in transfected cells; host or cells: human embryonic kidney 293 cells, e.g. 293-hY1-5 (ATCC CRL-12121)
T3 sequence (P25929 1-384): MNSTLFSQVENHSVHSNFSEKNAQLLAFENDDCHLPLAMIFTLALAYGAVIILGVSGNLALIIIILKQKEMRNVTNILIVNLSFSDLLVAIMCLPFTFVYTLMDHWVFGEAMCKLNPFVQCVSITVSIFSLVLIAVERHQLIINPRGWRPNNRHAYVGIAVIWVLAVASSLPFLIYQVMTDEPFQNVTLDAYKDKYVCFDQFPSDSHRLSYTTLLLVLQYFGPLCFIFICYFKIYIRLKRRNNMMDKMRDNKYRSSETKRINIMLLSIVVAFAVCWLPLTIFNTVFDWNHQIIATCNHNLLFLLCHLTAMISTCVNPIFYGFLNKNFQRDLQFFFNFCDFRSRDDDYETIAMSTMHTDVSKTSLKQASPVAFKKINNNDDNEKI
Put plainly: Radioligand binding to membranes, cloned human Y1 receptor. Conditions: text b745; read-out: Ki (nM) NPY (Y1).
Protocol: as §1, §2, §3, §4

Data set [5] deals with T4, human Y4 receptor (Homo sapiens, UniProt P50391).
T4 construct: expressed in transfected cells; host or cells: mouse fibroblast LM(tk-) cells, e.g. L-hY4-3 (ATCC CRL-11779)
T4 sequence (P50391 whole entry): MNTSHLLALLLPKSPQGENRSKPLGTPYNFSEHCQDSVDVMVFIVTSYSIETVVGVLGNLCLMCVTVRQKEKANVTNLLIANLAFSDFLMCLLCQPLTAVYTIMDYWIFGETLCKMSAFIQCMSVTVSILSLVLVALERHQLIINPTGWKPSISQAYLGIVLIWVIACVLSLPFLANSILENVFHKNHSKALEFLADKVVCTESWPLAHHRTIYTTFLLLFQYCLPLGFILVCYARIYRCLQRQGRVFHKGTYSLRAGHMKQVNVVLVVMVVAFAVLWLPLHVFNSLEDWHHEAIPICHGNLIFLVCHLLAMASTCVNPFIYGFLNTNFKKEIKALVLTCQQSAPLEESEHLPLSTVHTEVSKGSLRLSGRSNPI
Put plainly: Radioligand binding to membranes, cloned human Y4 receptor. The conditions noted are these: text b745; read-out: Ki (nM) NPY (Y4).
Protocol: as §1, §2, §3, §4

Setting [6] is: Table 6, read-out: Ki, nM hNPY-5.

Usually melting point stands for the temperature, or range, at which the solid turns liquid. `Cc1noc(C)c1S(=O)(=O)NCCCCCNc1nc(-c2ccncc2)cs1` (as salt: chloride) [Example 74, 2-(5-(3,5-Dimethylisoxazol-4-yl)sulfonylamino)pentylamino-4-(4-pyridyl)thiazole hydrogen chloride] returned a melting point of 108 to 109 °C.

Regarding `COc1ccc(C)cc1S(=O)(=O)NCCCCCNc1nc(-c2ccncc2)cs1` (as salt: chloride) [Example 75, 2-(5-(2-Methoxy-5-methyl)phenylsulfonylamino)pentylamino-4-(4-pyridyl)thiazole hydrogen chloride], the melting point was in the range of 116 to 117 °C.

In turn, `COc1ccc(C)cc1S(=O)(=O)N[C@H]1CC[C@H](CNc2nc(-c3ccccn3)cs2)CC1` (as salt: chloride) [Example 83, trans-2-(4-(2-Methoxy-5-methylphenyl)sulfonylamino)-cyclohexylmethylamino-4-(2-pyridyl)thiazole dihydrogen chloride] came in with a melting point of 111 to 113 °C.

On to `Cc1noc(C)c1S(=O)(=O)N[C@H]1CC[C@H](CNc2nc(-c3ccccn3)cs2)CC1` (as salt: chloride) [Example 85, trans-2-(4-(3,5-Dimethyl-4-isoxazolyl)sulfonylamino)-cyclohexylmethylamino-4-(2-pyridyl)thiazole dihydrogen chloride], for which the melting point is 98 to 101 °C.

Take `O=S(=O)(N[C@H]1CC[C@H](CNc2nc(-c3cccnc3)cs2)CC1)c1ccccc1F` (as salt: chloride) [Example 86, trans-2-(4-(2-Fluorophenyl)sulfonylamino)cyclohexylmethyl-amino-4-(3-pyridyl)thiazole dihydrogen chloride]: the melting point is 141 to 142 °C.

The term Kb denotes the affinity of an antagonist, worked out from how it opposes an agonist. For orientation: Ki means a dissociation constant, usually derived from enzyme kinetics or from competition with a known ligand. As for `CNc1nc(NCC2CCC(CNS(=O)(=O)c3cccc4ccccc34)CC2)nc(NC(C)C)n1` (centres unmarked) [Example 1, N1-{[4-({[4-(Isopropylamino)-6-(methylamino)-1,3,5-triazin-2-yl]amino}methyl)cyclohexyl]methyl}-1-naphthalenesulfonamide], the Kb in data set [1] was 200 nM. In addition, in data set [2] (Table 1, read-out: Ki (nM) hNPY-5), the Ki is 13 nM.

With `CCNc1nc(NCC)nc(NCC2CCC(CNS(=O)(=O)c3cccs3)CC2)n1` (centres unmarked) [Example 37, N2-[4-([4,6-di(ethylamino)-1,3,5-triazin-2-yl]aminomethyl)cyclohexyl]methyl-2-thiophenesulfonamide], the Kb in data set [1] is 158 nM. For the same molecule, the Ki in data set [2] (Table 2, read-out: Ki (nM) hNPY-5) was 55 nM.

Molecule `CC(C)Nc1nc(Cl)nc(NCC2CCC(CNS(=O)(=O)c3cccc4ccccc34)CC2)n1` (centres unmarked) [Example 49, N1-{[4-({[4-chloro-6-(isopropylamino)-1,3,5-triazin-2-yl]amino}methyl)cyclohexyl]methyl}-1-naphthalenesulfonamide] showed a Kb in data set [1] of 1000 nM. For the same molecule, the Ki in data set [3] is over 100000 nM; in data set [4] it was over 100000 nM; in data set [5] it was over 100000 nM; in data set [2] (Table 3, read-out: Ki (nM) hNPY-5), 138 nM.

In data set [1], `Cc1nc(-c2csc(N[C@H]3CC[C@H](CNS(=O)(=O)N(C)C)CC3)n2)c(C)s1` [Example 98, trans-N′-[(4-[4-(2,5-dimethyl-1,3-thiazol-4-yl)-1,3-thiazol-2-yl]aminocyclohexyl)methyl]-N,N-dimethylsulfamide] gave a Kb of 3.98 nM. In data set [2] (Table 5, read-out: Ki, nM hNPY-5), the Ki came out at 1.5 nM.

`CS(=O)(=O)NC[C@H]1CC[C@H](Nc2nc3c(s2)CCSc2ccccc2-3)CC1` [Example 104, N-{[4-(4,5-Dihydrobenzo[2,3]thiepino[4,5-d][1,3]thiazol-2-ylamino)cyclohexyl]methyl}-methanesulfonamide]: the Kb in data set [1] was 2.51 nM. The Ki in data set [2] (setting [6]) was determined as 6.8 nM.

For `O=S(=O)(NC[C@H]1CC[C@H](Nc2nc3c(s2)CCSc2ccccc2-3)CC1)c1cccc2cccnc12` [Example 157, N8-{[4-(4,5-Dihydrobenzo[2,3]thiepino[4,5-d][1,3]thiazol-2-ylamino)cyclohexyl]methyl}-8-quinolinesulfonamide], the Kb in data set [1] is 20 nM. Further, the Ki in data set [2] (setting [6]) is 5.7 nM.
